Results published in US20080031866A1, “METHOD FOR MODULATING THE PHARMACOKINETICS AND METABOLISM OF A THERAPEUTIC AGENT” (priority 2006, published 2008).

How the values were obtained:
[1] = Intraduodenal dosing with and without β-glucuronidase, catheterized rat; format: in vivo; settings: 10 mg/kg, rats N=6; for AUC / Cmax / concentration at 0 h / concentration at 0.25 h / concentration at 0.5 h / concentration at 1 h / concentration at 2 h / concentration at 3 h / concentration at 4 h / concentration at 5 h / concentration at 6 h: male, Sprague Dawley, rat, plasma; for AUC: read-out: AUC average ± standard deviation 0 to 6 hours; for Cmax: read-out: Cmax average ± standard deviation; for concentration at 0 h / concentration at 0.25 h / concentration at 0.5 h / concentration at 1 h / concentration at 2 h / concentration at 3 h / concentration at 4 h / concentration at 5 h / concentration at 6 h: other: intraduodenal
Procedure: (§1) A catheterized rat model was used in which the agent alone or agent and β-glucuronidase enzyme was administered intraduodenally or intracolonically. The intraduodenal and intracolonic dosing was intended to prevent the potential for loss of enzymatic activity when orally dosing the β-glucuronidase (e.g. by degradation in the stomach). […]
(§2) For the oral gavage dosing, Compound 1 was prepared in neat PEG-400. For the intraduodenal and intracolonic dosing solutions, Compound 1 was added to neat Tween 80, the mixture was sonicated for thirty minutes at 45° C. until Compound 1 was completely dissolved and then deionized (DI) water was added to form a solution consisting of 20% Tween 80 and 80% DI water by weight.
(§3) For the oral enzyme solutions, β-glucuronidase was added to the final formulation at a concentration of 57,600 units/ml.
(§4) For the intraduodenal and intracolonic dosing, male Sprague Dawley rats weighing 300-400 g were purchased from Charles River Labs. All rat experiments were conducted under approved animal protocols. The rats were catheterized at Charles River Labs and had one or more of the following chronic catheters for dosing and sampling: jugular/carotid, duodenal, and colonic. Rats were limited to only one GI catheter and one vascular catheter. For IV dosing, rats were purchased with jugular and carotid catheters for dosing in the jugular catheter and blood sampling through the carotid catheter. For intraduodenal/intracolonic dosing, rats had one of the GI catheters for dosing and a carotid catheter for blood sampling.
(§5) The surgeries were done two weeks prior to start of testing. Rats were fed 4 hours post dose administration. All rats were dosed without anesthesia and sacrificed at the end of the study.
(§6) A quantitative method for determining the amount of (6,7-dimethoxy-2,4-dihydro-indeno[1,2-c]pyrazol-3-yl)-(3-fluoro-phenyl)-amine Compound 1 and its major metabolites, glucuronide A (Cpd 1-GluA) and glucuronide B (Cpd 1-GluB) (see Scheme A) in rat plasma was developed using phenacetin as an internal standard. [drawing 1]
(§7) The two glucuronide conjugates were prepared and purified to permit accurate quantification of the levels of intact parent Compound 1 versus Cpd 1-GluA and Cpd 1-GluB. Each standard curve for Compound 1, Cpd 1-GluA, and Cpd 1-GluB generated from rat plasma included ten concentration levels. […] The quantitative procedure for each sample included: sample preparation, HPLC separation and mass spectrometry detection.
(§8) The rat plasma was prepared using protein precipitation techniques. Reference standards and quality control samples in rat plasma for Compound 1 were transferred to a 96 deep-well plate. The precipitation solution contained 100 ng/ml of internal standard in acetonitrile. 300 μl of precipitation solution were added to 100 μl of each standard, quality control and plasma sample. Samples were vortexed for 10 mins, then centrifuged at 4500 RPM for 10 mins. 10 μl of each sample were injected for LC/MS/MS analysis.
(§9) The HPLC column chosen for the bioanalysis was purchased from Thermo Electron (Hypersil BetaBasic C18, 5 cm×2.1 mm). The eluting solvents were composed of Solvent A: 0.1% formic acid in H2O and Solvent B: 0.1% formic acid in acetonitrile. A step gradient was used and flow rate was 300 μl/min. The total run time was 3.2 mins. Solvent B was increased from 35% at 0 min to 75% at 2.1 mins and decreased back to 35% at 2.2 mins. The retention times for Compound 1, phenacetin, Cpd 1-GluA and Cpd 1-GluB were 1.1 min, 0.9 min, 1.3 min, and 1.6 min, respectively.
(§10) API3000 with a Turbo Ionspray interface from Applied Biosystems was used for the detection of Compound 1, the internal standard and major metabolites. Electrospray ionization was performed in the positive ion mode heated nebulizer with a temperature of 300° C. LC/MS/MS chromatograms were acquired in MRM (multiple reaction mode). […]

[2] = Intracolonic dosing with and without β-glucuronidase, catheterized rat; format: in vivo; settings: for AUC / Cmax / concentration at 0 h / concentration at 0.25 h / concentration at 0.5 h / concentration at 1 h / concentration at 2 h / concentration at 3 h / concentration at 4 h / concentration at 5 h / concentration at 6 h: male, Sprague Dawley, rat, plasma; for AUC / Cmax / concentration at 0 h / concentration at 0.25 h / concentration at 0.5 h / concentration at 1 h / concentration at 2 h / concentration at 3 h / concentration at 4 h / concentration at 5 h / concentration at 6 h / AUC average ± standard deviation 0 to 6 hours: 10 mg/kg, rats N=6; for AUC: read-out: AUC average ± standard deviation 0 to 6 hours; for Cmax: read-out: Cmax average ± standard deviation; for concentration at 0 h / concentration at 0.25 h / concentration at 0.5 h / concentration at 1 h / concentration at 2 h / concentration at 3 h / concentration at 4 h / concentration at 5 h / concentration at 6 h: other: intracolonic
Procedure: as §1, §2, §3, §4, §5, §6, §7, §8, §9, §10

[3] = Compound 1 10 mg/kg intraduodenal with β-glucuronidase
[4] = Compound 1 10 mg/kg intraduodenal without enzyme
[5] = Compound 1 10 mg/kg intracolonic with β-glucuronidase
[6] = Compound 1 10 mg/kg intracolonic without enzyme

COc1cc2c(cc1OC)-c1n[nH]c(N(c3cccc(F)c3)[C@H]3O[C@@H](C(=O)O)[C@H](O)[C@@H](O)[C@@H]3O)c1C2 [Cpd 1-GluA]
AUC [1, 3]: 8940 ± 2140 ng·h/mL | Cmax [1, 3]: 6450 ng/mL | AUC [1, 4]: 1220 ± 371 ng·h/mL | Cmax [1, 4]: 717 ± 171 ng/mL | concentration at 0 h [1, 3]: 0 ng/mL | concentration at 0.25 h [1, 3]: 6450 ng/mL | concentration at 0.5 h [1, 3]: 4820 ng/mL | concentration at 1 h [1, 3]: 3860 ng/mL | concentration at 2 h [1, 3]: 812 ± 426 ng/mL | concentration at 3 h [1, 3]: 462 ± 208 ng/mL | concentration at 4 h [1, 3]: 480 ± 107 ng/mL | concentration at 5 h [1, 3]: 420 ± 74.1 ng/mL | concentration at 6 h [1, 3]: 462 ± 113 ng/mL | concentration at 0 h [1, 4]: 0 ng/mL | concentration at 0.25 h [1, 4]: 666 ± 198 ng/mL | concentration at 0.5 h [1, 4]: 687 ± 178 ng/mL | concentration at 1 h [1, 4]: 463 ± 164 ng/mL | concentration at 2 h [1, 4]: 118 ± 36.3 ng/mL | concentration at 3 h [1, 4]: 66.6 ± 42 ng/mL | concentration at 4 h [1, 4]: 88.2 ± 53.9 ng/mL | concentration at 5 h [1, 4]: 83.1 ± 23.2 ng/mL | concentration at 6 h [1, 4]: 90.2 ± 28.1 ng/mL | AUC average ± standard deviation 0 to 6 hours [1, 3]: 8,723.2 ± 2,132.6 ng · hr/ml | AUC average ± standard deviation 0 to 6 hours [1, 4]: 1,172.7 ± 361.2 ng · hr/ml | AUC [2, 5]: 1770 ng·h/mL | Cmax [2, 5]: 755 ± 509 ng/mL | AUC [2, 6]: 5060 ng·h/mL | Cmax [2, 6]: 1550 ± 1050 ng/mL | concentration at 0 h [2, 5]: 0 ng/mL | concentration at 0.25 h [2, 5]: 6450 ng/mL | concentration at 0.5 h [2, 5]: 4820 ng/mL | concentration at 1 h [2, 5]: 3860 ng/mL | concentration at 2 h [2, 5]: 812 ± 426 ng/mL | concentration at 3 h [2, 5]: 462 ± 208 ng/mL | concentration at 4 h [2, 5]: 480 ± 107 ng/mL | concentration at 5 h [2, 5]: 420 ± 74.1 ng/mL | concentration at 6 h [2, 5]: 462 ± 113 ng/mL | concentration at 0 h [2, 6]: 0 ng/mL | concentration at 0.25 h [2, 6]: 666 ± 198 ng/mL | concentration at 0.5 h [2, 6]: 6450 ng/mL | concentration at 1 h [2, 6]: 4820 ng/mL | concentration at 2 h [2, 6]: 3860 ng/mL | concentration at 3 h [2, 6]: 66.6 ± 42 ng/mL | concentration at 4 h [2, 6]: 88.2 ± 53.9 ng/mL | concentration at 5 h [2, 6]: 83.1 ± 23.2 ng/mL | concentration at 6 h [2, 6]: 90.2 ± 28.1 ng/mL | AUC intracolonic relative to intraduodenal ([2]; no enzyme present): 4.3 times | AUC average ± standard deviation 0 to 6 hours [2, 5]: 1,767.6 ± 1,282.3 ng · hr/ml | AUC average ± standard deviation 0 to 6 hours [2, 6]: 5061.9 ± 1,656.0 ng · hr/ml
